Test results as given in patent publication US10000500B2 (PROMEGA CORPORATION, priority 2016, dated 2018).

B1: Renilla luciferase (Renilla reniformis) (protein)
chain: MTSKVYDPEQRKRMITGPQWWARCKQMNVLDSFINYYDSEKHAENAVIFLHGNAASSYLWRHVVPHIEPVARCIIPDLIGMGKSGKSGNGSYRLLDHYKYLTAWFELLNLPKKIIFVGHDWGACLAFHYSYEHQDKIKAIVHAESVVDVIESWDEWPDIEEDIALIKSEEGEKMVLENNFFVETMLPSKIMRKLEPEEFAAYLEPFKEKGEVRRPTLSWPREIPLVKGGKPDVVQIVRNYNAYLRASDDLPKMFIESDPGFFSNAIVEGAKKFPNTEFVKVKGLHFSQEDAPDEMGKYIKSFVERVLKNEQ

Experiments:
Assay type in all cases: biochemical
Renilla luciferase [1] = molecular target: T1, Renilla luciferase (Renilla reniformis, UniProt P27652); test: Spectral measurements in various buffers with Renilla luciferase (Example 10); design: Low / High / Width: unit not given here
T1 sequence (P27652 1-311): B1 chain
Experimental: (§1) Each compound to be screened was diluted to a concentration of 100 uM (50 uM final concentration) in Renilla Glo Luciferase Assay buffer (Promega Corporation), NANO-GLO Luciferase Assay Buffer (Promega Corporation), or 20 uM (10 uM final) in OptiMEM+0.1% FBS. NANOLUC® luciferase and Renilla luciferase were serially diluted to 4, 40, and 400 ng/ml in OptiMEM+0.1% FBS. 50 ul of each compound dilution was mixed with 50 ul enzyme dilution and incubated for 1 minute at room temperature. Autoluminescence spectra of AS-353 was measured by adding 20 uM of substrate to OptiMEM+20% FBS and then 50 ul of this dilution was combined with 50 ul of OptiMEM+0.1% FBS. Spectral measurements were measured using a Tecan M-1000 luminometer. ([…]).

NANOLUC® Luciferase [2] = molecular target: T2, NANOLUC® Luciferase (Oplophorus gracilirostris, UniProt Q9GV45, A31E/A60N/A81I/F95D/I117V/K70R/L54V/L99Q/M102K/N193R/P142E/Q151K/Q38R/Q45L/V71I/Y165I); test: Spectral measurements in various buffers with NANOLUC luciferase (Example 10); conditions: for shift of the NanoLuc luciferase spectral properties: FIGS. 3A-3C and 4A-4D; for NanoGlo (spectral peak, Table 4) / OptiMEM (spectral peak, Table 4) / High / Low / Peak / Width: NanoLuc; for NanoGlo (spectral peak, Table 4): NanoGlo buffer; for High / Low / Peak / Width: emission spectrum
T2 sequence (Q9GV45 28-196 with tags or gaps with the stated changes limits assumed): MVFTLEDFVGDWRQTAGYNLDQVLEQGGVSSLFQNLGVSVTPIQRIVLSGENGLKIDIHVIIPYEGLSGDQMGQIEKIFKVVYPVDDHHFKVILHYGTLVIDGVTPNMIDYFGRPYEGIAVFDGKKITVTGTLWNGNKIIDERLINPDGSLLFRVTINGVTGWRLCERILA
Experimental: as §1

NANOLUC® Luciferase [3] = molecular target: T2, NANOLUC® Luciferase; test: Enzyme titration with NanoLuc luciferase (Example 9B); conditions: FIG. 2B
Experimental: (§2) Renilla luciferase and NanoLuc Lucifersase were diluted to a concentration of 4 ug/ml (4 ng/uL) in OptiMEM+0.1% FBS. 10× serial dilutions of the luciferases were then prepared in OptiMEM+0.1% FBS. Each substrate was diluted to 100 uM into Renilla Glo Luciferase assay buffer (Promega Corporation). The 10× enzyme serial dilutions were then combined with the substrate dilutions, 50 ul mixed with 50 ul compound, and incubated for 1 minute at room temperature. Light output for each compound was measured on a GLOMAX®-Multi+ luminometer.

NANOLUC® Luciferase [4] = molecular target: T2, NANOLUC® Luciferase; test: Luminescence assay with purified NANOLUC luciferase (Example 7); conditions: value marked (Autolum): autoluminescence
Renilla luciferase [5] = molecular target: T1, Renilla luciferase; test: Enzyme titration with Renilla luciferase (Example 9B); conditions: FIG. 2B
Experimental: as §2

[6] = substrate: O=c1c(Cc2ccco2)nc2c(Cc3ccccc3)[nH]c(-c3ccccc3)cn1-2; test: Km and Vmax substrate titration with Renilla luciferase (Example 8); conditions: other: Renilla luciferase 4 ng/ml; Renilla Glo buffer; Michaelis-Menten fit
Experimental: Each compound to be screened was diluted to a concentration of 100 uM in Renilla Glo Luciferase Assay buffer (Promega Corporation) and then further diluted to 2×serial dilution in Renilla Glo Luciferase Assay Buffer. NANOLUC® luciferase and Renilla luciferase were diluted to a concentration of 4 ng/ml in OptiMEM+0.1% FBS. 50 ul of each compound dilution was then mixed with 50 ul of each enzyme dilution and incubated for 1 minute at room temperature. Light output for each compound was measured on a GLOMAX®-Multi+ luminometer. Km and Vmax were calculated for each enzyme/substrate combination using a GraphPad Prism Michaelis-Menten non-linear fit (FIGS. 1A-ID).

[7] = emission spectrum, Renilla/RenillaGlo

Row | Molecule | shift of the NanoLuc luciferase spectral properties (NANOLUC® Luciferase [2]) | NanoGlo (spectral peak, Table 4) (NANOLUC® Luciferase [2]) | OptiMEM (spectral peak, Table 4) (NANOLUC® Luciferase [2]) | High (NANOLUC® Luciferase [2]; NanoGlo Buffer) | Low (NANOLUC® Luciferase [2]; NanoGlo Buffer) | Peak (NANOLUC® Luciferase [2]; NanoGlo Buffer) | Width (NANOLUC® Luciferase [2]; NanoGlo Buffer) | High (NANOLUC® Luciferase [2]; OptiMEM + 0.1% FBS) | Low (NANOLUC® Luciferase [2]; OptiMEM + 0.1% FBS) | Peak (NANOLUC® Luciferase [2]; OptiMEM + 0.1% FBS) | Width (NANOLUC® Luciferase [2]; OptiMEM + 0.1% FBS) | λmax, nm (Autolum) (NANOLUC® Luciferase [4]) | also measured
1 | O=c1c(Cc2ccco2)nc2c(-c3ccnc4ccccc34)[nH]c(-c3ccc(O)cc3)cn1-2 [AS-360, 2-(furan-2-ylmethyl)-6-(4-hydroxyphenyl)-8-(quinolin-4-yl)imidazo[1,2-a]pyrazin-3(7H)-one] | shifted the NanoLuc® luciferase spectral properties to red | 589 | 583 | 647 | 538 | 589 | 109 | 646 | 532 | 583 | 114 |  | RenillaGlo (spectral peak, Table 4) (Renilla luciferase [1]; Renilla, RenillaGlo buffer): 487; High (Renilla luciferase [1]; [7]): 553; Low (Renilla luciferase [1]; [7]): 451; Peak (Renilla luciferase [1]; [7]): 487; Width (Renilla luciferase [1]; [7]): 102; luminescence rank in the panel tested (NANOLUC® Luciferase [3]; NanoLuc luciferase): brightest luminescence in the panel tested; brighter than both Renilla and NanoLuc luciferase with AS-361 (NANOLUC® Luciferase [3]; NanoLuc luciferase, substrate 100 uM): ~30 ×
2 | N#Cc1ccc(-c2[nH]c3ccccc3n3c(=O)c(Cc4ccco4)nc2-3)s1 [AS-293, 5-(2-(furan-2-ylmethyl)-1-oxo-1,5-dihydroimidazo[1,2-a]quinoxalin-4-yl)thiophene-2-carbonitrile] |  |  |  |  |  |  |  |  |  |  |  | 596 (Autolum) nm | 
3 | N#Cc1ccc(-c2[nH]c(-c3ccc(O)cc3)cn3c(=O)c(Cc4ccco4)nc2-3)s1 [AS-353, 5-(2-(furan-2-ylmethyl)-6-(4-hydroxyphenyl)-3-oxo-3,7-dihydroimidazo[1,2-a]pyrazin-8-yl)thiophene-2-carbonitrile] | shifted the NanoLuc® luciferase spectral properties to red | 592 | 583 | 652 | 550 | 592 | 102 | 637 | 544 | 583 | 93 |  | enzyme dependent luminescence with Renilla Luciferase (Renilla luciferase [5]): only at the highest enzyme concentration; lower RLU values with NanoLuc compared to AS-360 (NANOLUC® Luciferase [3]; substrate 100 uM): ~100 ×
4 | N#Cc1ccc(-c2[nH]c(-c3cccs3)cn3c(=O)c(Cc4ccco4)nc2-3)s1 [AS-287, 5-(2-(furan-2-ylmethyl)-3-oxo-6-(thiophen-2-yl)-3,7-dihydroimidazo[1,2-a]pyrazin-8-yl)thiophene-2-carbonitrile] |  |  |  |  |  |  |  |  |  |  |  | 556 (Autolum) nm | 
5 | O=c1c(Cc2ccco2)nc2c(-c3ccnc(F)c3)[nH]c(-c3ccnc(F)c3)cn1-2 [AS-295, 26,8-bis(2-fluoropyridin-4-yl)-2-(furan-2-ylmethyl)imidazo[1,2-a]pyrazin-3(7H)-one] |  |  |  |  |  |  |  |  |  |  |  | 520 (Autolum) nm | 
6 | B1 |  |  |  |  |  |  |  |  |  |  |  |  | Km [6]: 10.6 µM
